Format in all cases: physicochemical
The nature of data set [1]: Polymorphic stability on storage under different relative humidity levels (XRD). The source says: In addition to the properties mentioned above, Form XXII is particularly important as it can be obtained and exist at ambient conditions as single, pure phase. […] is also particularly advantageous, for example, in being non-hygroscopic and polymorphic stable under different relative humidity levels.
(§1) In addition to the properties mentioned above, Form XXII is particularly important as it can be obtained and exist at ambient conditions as single, pure phase. […] Form XXII is also non-hygroscopic and polymorphic stable under different relative humidity levels.
The XRD analyses were performed on ARL (SCINTAG) powder X-Ray diffractometer model X′TRA equipped with a solid state detector. Copper radiation of 1.5418 Å was used. Scanning parameters: range: 2-40 degrees two-theta; scan mode: continuous scan; step size: 0.05°, and a rate of 3 deg/min. The position of the silicon (111) peak was corrected to be 28.45 degrees two theta. The positions of the XRD peaks for the Linagliptin forms were corrected respectively. […]

The nature of data set [2]: Hygroscopicity according to Ph.Eur. chapter 5.11. Particulars: non-hygroscopic = less than 0.2% (w/w) absorption of water, Ph.Eur. 5.11. The source says: As used herein, and unless stated otherwise, the term “non-hygroscopic” in relation to crystalline Linagliptin refers to less than 0.2% (w/w) absorption of water, for example atmospheric water, by the crystalline Linagliptin, as determined according to Ph.Eur. chapter 5.11 (“Hygroscopicity”)

Data set [3] in a line: Polymorphic stability when slurried in solvents. Particulars: slurrying in different solvents, such as acetonitrile and ethanol.
Source text: as §1

From patent US20130123282A1, “SOLID STATE FORMS OF LINAGLIPTIN” (priority 2011, published 2013) come the findings set out here.

Turning to `CC#CCn1c(N2CCC[C@@H](N)C2)nc2c1c(=O)n(Cc1nc(C)c3ccccc3n1)c(=O)n2C` [Form XXII, Linagliptin], in data set [1] (stored for 7 days at room temperature under 0-100% relative humidity), the “polymorphic transformation on storage” value is recorded as “no polymorphic transformation is observed”. Also, the hygroscopicity result in data set [2] is “non-hygroscopic”. The “polymorphic transformation on slurrying” value in data set [3] is recorded as “do not transform to other forms”.
As to `CC#CCn1c(N2CCC[C@@H](N)C2)nc2c1c(=O)n(Cc1nc(C)c3ccccc3n1)c(=O)n2C` [Form X, Linagliptin], the “solid form found by XRD after exposure to humidity” value in data set [1] (exposed to 100% relative humidity for 7 days) is “Linagliptin form XII”. In addition, the “polymorphic transformation on storage” value in data set [1] (stored for 7 days at room temperature under 0-80% relative humidity) is given as “no polymorphic transformation is observed”.
